The source of these data is US7968542B2, “Thiophene compounds and thrombopoietin receptor activators” (Nissan Chemical Industries, Ltd., priority 2005, dated 2011).

In the test the test system is Human bone marrow CD34+ cells. Put plainly: Megakaryocyte colony stimulating activity (megakaryocyte colony forming method). Format: cell-based. The following applies: 11 days. The protocol: The action of the compounds of Synthetic Examples 1 to 43 of the present invention and Reference Synthetic Examples 29 and 30 on the proliferation, differentiation and maturation of megakaryocyte cells was measured by the megakaryocyte colony forming method using human bone marrow cells. Human bone marrow CD34^+ cells (Cambrex Bio Science Walkersville) were incubated on 2-well chamber slide for 11 days in a CO2 incubator (5% CO2, 37° C.) using MegaCult™-C (StemCell Technologies) containing 0.1% (v/v) of the compounds of Synthetic Examples dissolved in dimethyl sulfoxide. After dehydration and fixation, the cells were stained with an anti-glycoprotein IIb/IIIa antibody in accordance with the instruction by the manufacturer. The colonies consisting of at least 8 stained megakaryocyte cells in each well were counted under a microscope. The megakaryocyte colony counts in at least 2 wells were averaged.

Take `CC(=NNC(=O)c1ccc(C(=O)NCc2cccnc2)s1)c1csc(-c2ccc(Cl)cc2)c1O` [Synthetic Ex. 26, 5-{1-[5-(4-chlorophenyl)-4-hydroxythiophen-3-yl]ethylidenehydrazinocarbonyl}thiophene-2-carboxylic acid 3-picolylamide]: under “drug concentration 1 μg/mL”, the Megakaryocyte colony count worked out at 182.
Still for that read-out and setting: next, `CC(=NNC(=O)c1ccc(C(=O)NC(C)C)s1)c1csc(-c2ccc(C(F)(F)F)cc2)c1O` [Synthetic Ex. 23, 5-{1-[5-(4-trifluoromethylphenyl)-4-hydroxythiophen-3-yl]ethylidenehydrazinocarbonyl}thiophene-2-carboxylic acid isopropylamide]: 134.
Regarding `CC(=NNC(=O)c1ccc(C(=O)NCc2cc(C)on2)s1)c1csc(-c2ccc(Cl)c(Cl)c2)c1O` [Synthetic Ex. 33, 5-{1-[5-(3,4-dichlorophenyl)-4-hydroxythiophen-3-yl]ethylidenehydrazinocarbonyl}thiophene-2-carboxylic acid (5-methylisoxazol-3-ylmethyl)amide], for the setting “drug concentration 0.1 μg/mL”, the Megakaryocyte colony count stood at 53.
Still for that read-out and setting: in the case of `CC(=NNC(=O)c1ccc(C(=O)NCc2ccnn2C)s1)c1csc(-c2ccc(Cl)c(Cl)c2)c1O` [Synthetic Ex. 32, 5-{1-[5-(3,4-dichlorophenyl)-4-hydroxythiophen-3-yl]ethylidenehydrazinocarbonyl}thiophene-2-carboxylic acid (1-methyl-1H-pyrazol-5-ylmethyl)amide] it was 55.
`CNC(=O)c1ccc(C(=O)NN=C(C)c2csc(-c3ccc(Br)cc3)c2O)s1` [Synthetic Ex. 20, 5-{1-[5-(4-bromophenyl)-4-hydroxythiophen-3-yl]ethylidenehydrazinocarbonyl}thiophene-2-carboxylic acid methylamide] had a Megakaryocyte colony count (drug concentration 1 μg/mL) of 185.
Same read-out and setting: in the case of `CNC(=O)c1ccc(C(=O)NN=C(C)c2csc(-c3ccc(Cl)cc3)c2O)s1` [Synthetic Ex. 27, 5-{1-[5-(4-chlorophenyl)-4-hydroxythiophen-3-yl]ethylidenehydrazinocarbonyl}thiophene-2-carboxylic acid methylamide] it was 201.
As to `C/C(=N\NC(=O)c1ccc(C(=O)O)s1)c1csc(-c2ccc(Cl)c(Cl)c2)c1O` [Reference Synthetic Ex. 30, reference compound], the Megakaryocyte colony count is reported as 12 (drug concentration 0.1 μg/mL), 34 (drug concentration 0.3 μg/mL) and 87 (drug concentration 1 μg/mL).
On to `COc1cc(CNC(=O)c2ccc(C(=O)NN=C(C)c3csc(-c4ccc(Cl)c(Cl)c4)c3O)s2)on1` [Synthetic Ex. 36, 5-{1-[5-(3,4-dichlorophenyl)-4-hydroxythiophen-3-yl]ethylidenehydrazinocarbonyl}thiophene-2-carboxylic acid (3-methoxyisoxazol-5-ylmethyl)amide], for which the Megakaryocyte colony count by setting is: (drug concentration 0.1 μg/mL) 102; (drug concentration 1 μg/mL) 135.
For `C/C(=N\NC(=O)c1ccc(C(=O)O)cc1)c1csc(-c2ccc(Cl)c(Cl)c2)c1O` [Reference Synthetic Ex. 29, reference compound], in that order: 2 and 31.
As to `CC(=NNC(=O)c1ccc(C(=O)NCc2cc(C)n(C)n2)s1)c1csc(-c2ccc(Cl)c(Cl)c2)c1O` [Synthetic Ex. 37, 5-{1-[5-(3,4-dichlorophenyl)-4-hydroxythiophen-3-yl]ethylidenehydrazinocarbonyl}thiophene-2-carboxylic acid (1,5-dimethyl-1H-pyrazol-3-ylmethyl)amide], the Megakaryocyte colony count (drug concentration 0.1 μg/mL) is recorded as 81.
With `CC(=NNC(=O)c1ccc(C(=O)N2CCC(O)C2)s1)c1csc(-c2ccc(Cl)c(Cl)c2)c1O` (centres unmarked) [Synthetic Ex. 42, 5-(3-hydroxypyrrolidine-1-carbonyl)thiophene-2-carboxylic acid {1-[5-(3,4-dichlorophenyl)-4-hydroxythiophen-3-yl]ethylidene}hydrazide], the Megakaryocyte colony count (drug concentration 0.1 μg/mL) is 90.
With `CC(=NNC(=O)c1ccc(C(=O)NCc2ccncc2)s1)c1csc(-c2ccc(Cl)c(Cl)c2)c1O` [Synthetic Ex. 30, 5-{1-[5-(3,4-dichlorophenyl)-4-hydroxythiophen-3-yl]ethylidenehydrazinocarbonyl}thiophene-2-carboxylic acid 4-picolylamide], the Megakaryocyte colony count is, setting by setting: (drug concentration 0.1 μg/mL) 145; (drug concentration 1 μg/mL) 271.
Compound `CC(=NNC(=O)c1ccc(C(=O)NCc2cnccn2)s1)c1csc(-c2ccc(Cl)c(Cl)c2)c1O` [Synthetic Ex. 38, 5-{1-[5-(3,4-dichlorophenyl)-4-hydroxythiophen-3-yl]ethylidenehydrazinocarbonyl}thiophene-2-carboxylic acid (pyrazin-2-ylmethyl)amide] showed a Megakaryocyte colony count (drug concentration 0.1 μg/mL) of 66.
Turning to `COCCNC(=O)c1ccc(C(=O)NN=C(C)c2csc(-c3ccc(Cl)c(Cl)c3)c2O)s1.[K]` [Synthetic Ex. 6, 5-{1-[5-(3,4-dichlorophenyl)-4-hydroxythiophen-3-yl]ethylidenehydrazinocarbonyl}thiophene-2-carboxylic acid 2-methoxyethylamide potassium salt], the Megakaryocyte colony count reads like this: (drug concentration 0.1 μg/mL) 115; (drug concentration 1 μg/mL) 151.
Where the note is “drug concentration 0.1 μg/mL”, `CC(=NNC(=O)c1ccc(C(=O)NCc2cncn2C)s1)c1csc(-c2ccc(C(F)(F)F)cc2)c1O` [Synthetic Ex. 41, 5-{1-[5-(4-trifluoromethylphenyl)-4-hydroxythiophen-3-yl]ethylidenehydrazinocarbonyl}thiophene-2-carboxylic acid (1-methyl-1H-imidazol-5-ylmethyl)amide] displayed a Megakaryocyte colony count of 41.
Same read-out and setting: next, `CC(=NNC(=O)c1ccc(C(=O)NC(C)C)s1)c1csc(-c2ccc(Br)cc2)c1O` [Synthetic Ex. 21, 5-{1-[5-(4-bromophenyl)-4-hydroxythiophen-3-yl]ethylidenehydrazinocarbonyl}thiophene-2-carboxylic acid isopropylamide]: 85; `CC(=NNC(=O)c1ccc(C(=O)N2CCC(O)C2)s1)c1csc(-c2ccc(C(F)(F)F)cc2)c1O` (centres unmarked) [Synthetic Ex. 43, 5-(3-hydroxypyrrolidine-1-carbonyl)thiophene-2-carboxylic acid {1-[5-(4-trifluoromethylphenyl)-4-hydroxythiophen-3-yl]ethylidene}hydrazide]: 109; `C/C(=N\NC(=O)c1ccc(C(=O)NCc2ccccn2)s1)c1csc(-c2ccc(OC(F)(F)F)cc2)c1O` [Synthetic Ex. 22]: 96.
`CCN(CC)C(=O)c1ccc(C(=O)NN=C(C)c2csc(-c3ccc(Cl)c(Cl)c3)c2O)s1.[K]` [Synthetic Ex. 3, 5-{1-[5-(3,4-dichlorophenyl)-4-hydroxythiophen-3-yl]ethylidenehydrazinocarbonyl}thiophene-2-carboxylic acid diethylamide potassium salt] had a Megakaryocyte colony count (drug concentration 1 μg/mL) of 348.
`CC(=NNC(=O)c1ccc(C(=O)NCCc2ccncc2)s1)c1csc(-c2ccc(Cl)c(Cl)c2)c1O` [Synthetic Ex. 31, 5-{1-[5-(3,4-dichlorophenyl)-4-hydroxythiophen-3-yl]ethylidenehydrazinocarbonyl}thiophene-2-carboxylic acid 2-(pyridin-4-yl)ethylamide]: the Megakaryocyte colony count runs as follows: (drug concentration 0.1 μg/mL) 70; (drug concentration 1 μg/mL) 136.
For the compound `CC(=NNC(=O)c1ccc(C(=O)NCc2ccncc2)s1)c1csc(-c2ccc(Br)cc2)c1O` [Synthetic Ex. 18, 5-{1-[5-(4-bromophenyl)-4-hydroxythiophen-3-yl]ethylidenehydrazinocarbonyl]thiophene-2-carboxylic acid 4-picolylamide], the Megakaryocyte colony count (drug concentration 1 μg/mL) stood at 125.
Regarding `CC(=NNC(=O)c1ccc(C(=O)N2CCCC2)s1)c1csc(-c2ccc(Cl)c(Cl)c2)c1O.[K]` [Synthetic Ex. 4, 5-(pyrrolidine-1-carbonyl)thiophene-2-carboxylic acid {1-[5-(3,4-dichlorophenyl)-4-hydroxythiophen-3-yl]ethylidene}hydrazide potassium salt], the Megakaryocyte colony count by setting is: (drug concentration 0.1 μg/mL) 84; (drug concentration 1 μg/mL) 148.
For `CC(=NNC(=O)c1ccc(C(=O)N2CCCC2)s1)c1csc(-c2ccc(C(F)(F)F)cc2)c1O.[K]` [Synthetic Ex. 10, 5-(pyrrolidine-1-carbonyl)thiophene-2-carboxylic acid {1-[5-(4-trifluoromethylphenyl)-4-hydroxythiophen-3-yl]ethylidene}hydrazide potassium salt], in that order: 105 and 208.
`C/C(=N\NC(=O)c1ccc(C(=O)NCc2ccncc2)s1)c1csc(-c2ccc(Cl)cc2)c1O` [Synthetic Ex. 24, 5-{1-5-[(4-chlorophenyl)-4-hydroxythiophen-3-yl]ethylidenehydrazinocarbonyl}thiophene-2-carboxylic acid 4-picolylamide] registered a Megakaryocyte colony count (drug concentration 1 μg/mL) of 164.
Turning to `CC(=NNC(=O)c1ccc(C(=O)N(C)Cc2ccccn2)s1)c1csc(-c2ccc(C(F)(F)F)cc2)c1O.[K]` [Synthetic Ex. 13, 5-{1-[5-(4-trifluoromethylphenyl)-4-hydroxythiophen-3-yl]ethylidenehydrazinocarbonyl}thiophene-2-carboxylic acid methyl-2-picolylamide potassium salt], the Megakaryocyte colony count (drug concentration 0.1 μg/mL) is 61.
Still for that read-out and setting: in the case of `CC(=NNC(=O)c1ccc(C(=O)NCc2cnc(C)cn2)s1)c1csc(-c2ccc(Cl)c(Cl)c2)c1O` [Synthetic Ex. 34, 5-{1-[5-(3,4-dichlorophenyl)-4-hydroxythiophen-3-yl]ethylidenehydrazinocarbonyl}thiophene-2-carboxylic acid (5-methylpyrazin-2-ylmethyl)amide] it was 50.
